In ChEMBL document CHEMBL1150962, “Activity-guided isolation of steroidal alkaloid antiestrogen-binding site inhibitors from Pachysandra procumbens” (J Nat Prod, 1998) one finds Activity and IC50 data, which are given here for ten compounds.

Assay [1] concerns Ishikawa. Briefly: Potentiation of tamoxifen-induced antiestrogenic activity in human Ishikawa cells assessed as decrease in tamoxifen IC50 at 1 ug/ml after 4 days by ELISA. In kind it is functional, cell-based. For orientation: An ELISA detects its analyte on a solid surface through an enzyme-linked reagent.
The target in assay [2] is Anti-estrogen binding site (Rattus norvegicus). Briefly: Displacement of [3H]tamoxifen from antiestrogen binding site in Sprague-Dawley rat liver by liquid scintillation counting. In general terms: In a radioligand displacement assay an active substance lowers the binding of a labelled ligand.
For assay [3], the system named is Ishikawa. In words: Potentiation of tamoxifen-induced antiestrogenic activity in human Ishikawa cells assessed as decrease in tamoxifen IC50 at 2 ug/ml after 4 days by ELISA. Format: functional, cell-based.
The subject of assay [4] is Ishikawa. In words: Antiestrogenic activity in human Ishikawa cells assessed as inhibition of estrogen-induced alkaline phosphatase activity after 4 days by ELISA. The conditions noted are these: 96 h.

SMILES strings stand for the structures. Calls of active or inactive are those of the source. No cut-off for these calls is given here.

In the case of `CC(C)=CC(=O)N(C)[C@@H]1CC[C@@]2(C)[C@@H](CC[C@@H]3[C@@H]2CC[C@]2(C)[C@@H]([C@H](C)N(C)C)CC[C@@H]32)C1` [(+)-PACHYSAMINE B], the outcome in assay [1] was Active. The IC50 – broadly, the concentration needed to halve the response being measured – in assay [2] stood at 600 nM. With `C[C@@H]([C@H]1CC[C@H]2[C@@H]3CC[C@H]4C(=O)C(NC(=O)c5ccccc5)=CC[C@]4(C)[C@H]3CC[C@]12C)N(C)C`, the result in assay [3] was Active. This compound also registered an IC50 in assay [2] of 8000 nM. The matching figures for `CC(C)[C@@H]1CN(C2=CC[C@@]3(C)[C@@H](CC[C@@H]4[C@@H]3CC[C@]3(C)[C@@H]([C@H](C)N(C)C)[C@@H](O)C[C@@H]43)C2=O)C1=O`: “Active” and 3500 nM. Consider `CC(=O)O[C@H]1[C@@H](N2C(=O)c3ccccc3C2=O)[C@H](O)C[C@]2(C)[C@H]3CC[C@]4(C)[C@@H]([C@H](C)N(C)C)CC[C@H]4[C@@H]3CC[C@@H]12`, for which the outcome in assay [3] was Active. As for `CO[C@H]1CC[C@@]2(C)C(=CC[C@H]3[C@@H]4CC[C@H]([C@H](C)N(C)C)[C@@]4(C)CC[C@@H]32)C1`, the outcome in assay [3] was Active. Besides, in assay [2], the IC50 was found to be 400 nM. On to `CC(C)[C@@H]1CN(C2=CC[C@@]3(C)[C@@H](CC[C@@H]4[C@@H]3CC[C@]3(C)[C@@H]([C@H](C)N(C)C)CC[C@@H]43)C2=O)C1=O`, for which, in assay [3], the outcome was Active. For the compound `CC/C(=C(\c1ccccc1)c1ccc(OCCN(C)C)cc1)c1ccccc1` [TAMOXIFEN], the IC50 in assay [4] stood at 420 nM. In the case of `C[C@@H]([C@H]1CC[C@H]2[C@@H]3CC[C@H]4C[C@@H](NC(=O)c5ccccc5)CC[C@]4(C)[C@H]3CC[C@]12C)N(C)C` [EPIPACHYSAMINE D], in assay [3], the result was Active. In addition, the IC50 in assay [2] is greater than 20000 nM. With `CC(=O)O[C@H]1C(NC(=O)c2ccccc2)=CC[C@]2(C)[C@H]3CC[C@]4(C)[C@@H]([C@H](C)N(C)C)CC[C@H]4[C@@H]3CC[C@@H]12`, the outcome in assay [1] was Active. For the same compound, in assay [2], the IC50 came out at 600 nM.

For `C[C@@H]([C@H]1CC[C@H]2[C@@H]3CC[C@H]4C[C@]5(CC[C@]4(C)[C@H]3CC[C@]12C)c1ccccc1C(=O)N5C)N(C)C`, the outcome in assay [3] was Active. Besides, the concentration for half-maximal inhibition (IC50) in assay [2] was 7400 nM.
